This passage reports inhibition and Ki results from ChEMBL document CHEMBL1123660 (J Med Chem, 1987).

As usually defined, the inhibition is the drop in the measured response relative to a control, in per cent. Lower therefore signals a response near the control. For orientation: pKi means the negative decadic logarithm of the Ki, by convention in mol/L.

Experiment [1] relates to Platelet-activating factor receptor (Oryctolagus cuniculus). Briefly: Percent inhibition of [3H]PAF to platelet-activating factor (PAF) receptor from rabbit platelet membranes at. The following applies: concentration not given here.
The species named for experiment [2] is Oryctolagus cuniculus. Nature of the experiment: PAF antagonism was determined by rabbit platelet inhibition and neurophil aggregation and degranulation at 0.1 to 1 uM concentration. In kind it is functional.

pKi: −log10 of the molar value.

For `CCCC1=C[C@]2(OC)C(=CC1=O)O[C@H](c1ccc(OC)c(OC)c1)[C@H]2C`, the inhibition in experiment [1] is 61%.
Take `C=CCC1=C[C@@]2(OC)C(=CC1=O)O[C@H](c1ccc(OC)c(OC)c1)[C@H]2C` (stereo in doubt) [KADSURENONE]: the pKi in experiment [2] was 7.24.
